Measured values: patent US6437093B1, “Methods of treatment comprising administration of Substance P” (Milkhaus Laboratory, Inc., priority 2000, dated 2002)
Ends that are not written are not given here.

Key:
Format in all cases: in vivo, human
[1] = system: upper airway distress, persistent cough, RUDS (Reactive Upper Airway Dysfunction); assay: Case report: persistent cough from RUDS triggered by volatile chemicals, sublingual Substance P; settings: person with RUDS; sublingual drop 8×10−^5 mg, one drop per hour for three hours then four times daily
Description: His disease appeared to be initiated by chronic exposure to floor stripper which caused RUDS (Reactive Upper Airway Dysfunction). […] Each drop contained 8×10−^5 mg synthetic Substance P (Sigma) in phosphate buffered saline.

[2] = system: RUDS manifested as severe hoarseness or aphonia; assay: Case report: RUDS with severe hoarseness or aphonia, sublingual Substance P; settings: person, one drop four times daily or more if needed
Description: Their disease appeared to be initiated by chronic exposure to floor stripper which caused RUDS (Reactive Upper Airway Dysfunction). […] Each drop contained 8×10−^5 mg synthetic Substance P (Sigma) in phosphate buffered saline. According to this example, a person presented RUDS that manifested as severe hoarseness or even aphonia if exposed to volatile chemicals, and especially to fragrances. They had suffered for several years after being exposed to fragrances from several co-workers using multiple perfumes. Their airway problem was reduced only by complete avoidance of any exposure to volatile chemicals which dramatically changing their lifestyle. […] Their RUDS continues to be controlled by taking one drop of Substance P four times daily, or more frequently if needed.

[3] = system: severe sciatic-like pain of the hip; assay: Case report: severe sciatic-like hip pain in a diabetic subject, sublingual Substance P; settings: person with diabetes; sublingual administration as in Example 1
Description: Their disease appeared to be initiated by chronic exposure to floor stripper which caused RUDS (Reactive Upper Airway Dysfunction). […] Each drop contained 8×10−^5 mg synthetic Substance P (Sigma) in phosphate buffered saline. According to this example, a person presented with severe sciatic-like pain of the hip of long duration. The subject also presented with a diagnosis of diabetes. […] They continue well for over two years.

[4] = system: repetitive, almost tic-like, exaggerated cough; assay: Case report: repetitive tic-like exaggerated cough, sublingual Substance P; settings: child
Description: Their disease appeared to be initiated by chronic exposure to floor stripper which caused RUDS (Reactive Upper Airway Dysfunction). […] Each drop contained 8×10−^5 mg synthetic Substance P (Sigma) in phosphate buffered saline. According to this example, a child presented with a repetitive, almost tic-like, exaggerated cough that was disruptive to their classmates and teacher. Several physicians were consulted without success and with no apparent cause found for the cough.

chronic sciatic pain = assay: Case report: chronic disabling sciatic pain, sublingual Substance P; settings: person
Description: Their disease appeared to be initiated by chronic exposure to floor stripper which caused RUDS (Reactive Upper Airway Dysfunction). […] Each drop contained 8×10−^5 mg synthetic Substance P (Sigma) in phosphate buffered saline. According to this example, a person presented with a diagnosis of chronic sciatic pain that was disabling and of several years duration. Analgesics helped reduce the pain. The subject was treated by sublingual administration of Substance P according to the method of Example 1.

[5] = system: arthritis-like pain and inflammation of the knuckles; assay: Case report: arthritis-like pain and inflammation of the knuckles, sublingual Substance P; settings: person; after three days of sublingual drop therapy, continued after two months
Description: Their disease appeared to be initiated by chronic exposure to floor stripper which caused RUDS (Reactive Upper Airway Dysfunction). […] Each drop contained 8×10−^5 mg synthetic Substance P (Sigma) in phosphate buffered saline. According to this example, a person with arthritis-like pain and inflammation of the knuckles but who tested negative for rheumatoid factor. […] The subject was treated by sublingual administration of Substance P according to the method. of Example 1.

[6] = system: numbness, tingling and severe pain in feet and legs; assay: Case report: numbness, tingling and severe pain in feet, legs and hands, sublingual Substance P; settings: person; sublingual administration as in Example 1
Description: Their disease appeared to be initiated by chronic exposure to floor stripper which caused RUDS (Reactive Upper Airway Dysfunction). […] Each drop contained 8×10−^5 mg synthetic Substance P (Sigma) in phosphate buffered saline. According to this example, a person presented with a history of numbness, tingling and severe pain in feet and legs eight years earlier. During the year immediately preceding their first office visit, the discomfort had spread to their hands. […] No cause of their discomfort could be determined, and the only relief they obtained was from narcotic analgesics.

Substance P (RPKPQQFFGLM; not fully specified (C-terminus); UniProt P20366 58-68, looked up) [synthetic Substance P (Sigma) in phosphate buffered saline; a tachykinin naturally occurring in the body]
effect on persistent cough [1]: stopped almost immediately
effect on RUDS (hoarseness/aphonia) [2]: significant improvement
effect on sciatic-like hip pain [3]: reduced the pain dramatically
long-term control of cough disorder ([4]; continued sublingual treatment): continued to control this disorder after more than a year
effect on cough ([4]; sublingual administration as in Example 1): stopped the cough within minutes
long-term control of sciatic pain (chronic sciatic pain; daily doses over several months): continued control of pain
effect on chronic sciatic pain after first drop (chronic sciatic pain; first sublingual drop): instantly and dramatically “turned off” the pain
effect on arthritis-like pain and inflammation [5]: “remarkable” improvement
need for narcotic analgesics [6]: able to discontinue narcotics
pain relief [6]: almost immediate pain relief
